Experiments:
Assay type in all cases: in vivo
[1] = system: Stellaria media, Lolium multiflorum, Amaranthus retroflexus, Sinapis arvensis, Avena fatua and Setaria viridis; assay: Pre-emergence effect on weeds (greenhouse pot test); details: application rate of 1 kg and less of active substance per hectare; scored after 3 to 4 weeks by comparison with untreated controls
Source text: Seeds or rhizome pieces of monocotyledonous and dicotyledonous weed plants are placed in sandy loam soil in plastic pots and covered with soil. The compounds according to the invention which are formulated in the form of wettable powders or emulsion concentrates were then applied to the surface of the soil cover in the form of aqueous suspensions or emulsions at an application rate of 600 to 800 l of water/ha (converted), in various dosages.
After the treatment, the pots are placed in a greenhouse and kept under good growth conditions for the weeds. After the test plants had emerged, the damage to the plants or the negative effect on the emergence was scored visually after a test period of 3 to 4 weeks by comparison with untreated controls. As shown by the test results, compounds according to the invention have good herbicidal pre-emergence activity against a broad spectrum of weed grasses and broad-leafed weeds.

[2] = system: harmful plants which are typical for rice crops, for example Cyperus iria and Echinochloa crus-galli; assay: Action on harmful plants in rice (paddy rice conditions); details: applied into the dammed water, different dosages, scored about three weeks after application
Source text: Transplanted and sown rice and also typical rice weeds (gramineous and broad-leaved) are cultivated in closed plastic pots in a greenhouse to the three-leaf stage (Echinochloa crus-galli 1.5-leaf) under paddy rice conditions (dammed height of water: 2-3 cm). This is followed by treatment with the novel compounds. For this purpose, the formulated active compounds are suspended, dissolved or emulsified in water and applied by pouring them into the dammed water around the test plants in different dosages. After this treatment, the test plants are set up in a greenhouse under optimum growth conditions and are maintained in this way throughout the test period.
About three weeks after application, evaluation is made by visual scoring of the damage to the plants by comparison with untreated controls.

[3] = system: Stellaria media, Lolium multiflorum, Amaranthus retroflexus, Sinapis arvensis, Avena fatua und Setaria viridis; assay: Post-emergence effect on weeds (greenhouse pot test); details: application rate of 1 kg and less of active substance per hectare; treated at three-leaf stage; scored after about 3 to 4 weeks by comparison with untreated controls
Procedure: Seeds or rhizome pieces of monocotyledonous and dicotyledonous weeds were placed in sandy loam soil in plastic pots, covered with soil and grown in a greenhouse under good growth conditions. Three weeks after sowing, the test plants were treated at the three-leaf stage. The compounds according to the invention which were formulated as wettable powders or emulsion concentrates were sprayed, at various dosages, onto the, green parts of the plants at an application rate of 600 to 800 l of water/ha (converted). After the test plants had remained in the greenhouse for about 3 to 4 weeks under optimum growth conditions, the effect of the preparations was scored visually by comparison with untreated controls. The agents according to the invention also have good herbicidal activity post-emergence against a broad spectrum of economically important weed grasses and broad-leafed weeds.

Cc1cccc(OCC(Nc2nc(N)nc(C(F)(F)C(F)F)n2)C2CCCC2)c1 (racemic) [Example 110, 2-Amino-4-(1,1,2,2-tetrafluoroethyl)6-{N-[1-cyclopentyl-2-(3-methylphenoxy)ethyl]amino}-1,3,5-triazine]
very good herbicidal activity: herbicidal activity pre-emergence (damage to the plants or negative effect on emergence, scored visually) [1] | herbicidal activity against harmful plants typical for rice crops (visual scoring of damage) [2] | herbicidal activity post-emergence (scored visually) [3]

CC(C)(F)c1nc(N)nc(NC(COc2ccccc2)C2CCC2)n1 (racemic) [Example 178, 2-Amino4-(1-fluoro-1-methylethyl)-6-[N-(1-cyclobutyl-2-phenoxyethyl)-amino]-1,3,5-triazine]
very good herbicidal activity: herbicidal activity pre-emergence (damage to the plants or negative effect on emergence, scored visually) [1] | herbicidal activity against harmful plants typical for rice crops (visual scoring of damage) [2] | herbicidal activity post-emergence (scored visually) [3]
